Test results from ChEMBL document CHEMBL1148656, “Synthesis, SAR exploration, and X-ray crystal structures of factor XIa inhibitors containing an alpha-ketothiazole arginine” (Bioorg Med Chem Lett, 2006).

target: Coagulation factor XI (Homo sapiens, UniProt P03951)
Sequence (P03951 19-387 limits assumed): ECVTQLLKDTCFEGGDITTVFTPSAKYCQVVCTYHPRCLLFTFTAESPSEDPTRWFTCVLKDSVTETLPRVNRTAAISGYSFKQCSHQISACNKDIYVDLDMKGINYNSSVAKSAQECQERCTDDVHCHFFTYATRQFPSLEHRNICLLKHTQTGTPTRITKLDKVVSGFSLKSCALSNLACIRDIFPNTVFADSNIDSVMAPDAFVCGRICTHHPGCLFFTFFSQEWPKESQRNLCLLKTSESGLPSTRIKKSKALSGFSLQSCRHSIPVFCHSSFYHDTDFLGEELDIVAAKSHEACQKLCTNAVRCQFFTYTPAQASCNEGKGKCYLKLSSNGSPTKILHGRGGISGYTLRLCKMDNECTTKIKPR
Sequence (P03951 388-625 limits assumed): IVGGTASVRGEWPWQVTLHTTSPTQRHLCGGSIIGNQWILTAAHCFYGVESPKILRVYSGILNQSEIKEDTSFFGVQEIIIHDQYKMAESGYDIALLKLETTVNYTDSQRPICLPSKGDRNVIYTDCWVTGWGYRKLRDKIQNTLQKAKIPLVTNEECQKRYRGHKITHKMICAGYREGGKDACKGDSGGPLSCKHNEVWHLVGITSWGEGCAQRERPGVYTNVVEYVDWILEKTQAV

Row | SMILES | IC50
1 | CC(C)[C@H](NC(=O)N[C@H]1C[C@H]2C[C@@H]([C@@H]1C)C2(C)C)C(=O)N[C@@H](CCCN=C(N)N)C(=O)c1nccs1 | 3.31 µM
2 | CC(C)[C@H](NC(=O)NCc1ccc(Cl)c(Cl)c1)C(=O)N[C@@H](CCCN=C(N)N)C(=O)c1nccs1 | 0.48 µM
3 | NC(N)=NCCC[C@H](NC(=O)Cc1ccc(Cl)c(Cl)c1)C(=O)c1nccs1 | 37.9 µM
4 | CC(C)[C@H](NC(=O)[C@H](O)c1cccc(Cl)c1)C(=O)N[C@@H](CCCN=C(N)N)C(=O)c1nccs1 | 0.116 µM
5 | CC(C)[C@H](NC(=O)[C@H](O)c1cccc(F)c1)C(=O)N[C@@H](CCCN=C(N)N)C(=O)c1nccs1 | 0.956 µM
6 | N=C(N)NCCC[C@H](NS(=O)(=O)c1cccc2ccccc12)C(=O)c1nccs1 | 250 µM
7 | NC(N)=NCCC[C@H](NC(=O)Cc1cccc2ccccc12)C(=O)c1nccs1 | > 250 µM
8 | NC(N)=NCCC[C@H](NC(=O)c1cccc2ccccc12)C(=O)c1nccs1 | 2.25 µM
9 | CC(C)CC(=O)N[C@@H](CCCN=C(N)N)C(=O)c1nccs1 | 123 µM

Continued, values first:

Row | IC50 | SMILES
10 | 6.22 µM | CC(C)[C@H](CC(=O)NCc1ccc(Cl)c(Cl)c1)C(=O)N[C@@H](CCCN=C(N)N)C(=O)c1nccs1
11 | > 200 µM | N=C(N)NCCC[C@H](NC(=O)c1ccc2ccccc2c1)C(=O)c1nccs1
12 | 86 µM | N=C(N)NCCC[C@H](NS(=O)(=O)c1ccc2ccccc2c1)C(=O)c1nccs1
13 | 0.713 µM | CC(C)[C@H](NC(=O)N[C@@H]1C[C@@H]2C[C@H]([C@H]1C)C2(C)C)C(=O)N[C@@H](CCCN=C(N)N)C(=O)c1nccs1
14 | 5.9 µM | N=C(N)NCCC[C@H](NC(=O)c1cc(F)cc2c1OCOC2)C(=O)c1nccs1
